Counter-ions that a name gives are not always drawn. Like-named read-outs stand apart in the source and are kept apart here.
Assays:
[1] = test system: acetylcholine activity on heart rate; test: Inhibition of the effect of acetylcholine on heart rate in guinea pigs; format: in vivo, guinea pig; details: Cavia porcellus, 5 min
Experimental: (§1) The objective of the methods was to confirm the selectivity of the antimuscarinic effect. Those substances which had been selected on the basis of "in vitro" tests were tested for their 3. […] M1 /M2 SELECTIVITY IN THE RAT 3. INHIBITION OF THE EFFECT OF ACETYLCHOLINE ON THE BLADDER, BRONCHI AND HEART RATE IN GUINEA PIGS 5 minutes after the administration of the test substance, 10 microgram/kg of acetylcholine were simultaneously injected intravenously and intra-arterially into anaesthetised guinea pigs. The heart rate was recorded directly by extracorporeal derivation of the ECG, the expiration resistance according to Konzett-Ro ler and contraction of the exposed bladder. In order to determine the inhibition of the acetylcholine activity on the organs under investigation, dosage/activity curves were recorded and from them -log ED50 values were determined.

[2] = test system: acetylcholine activity on the bladder; test: Inhibition of the effect of acetylcholine on the bladder in guinea pigs; format: in vivo, guinea pig; details: Cavia porcellus, 5 min
Experimental: as §1

[3] = test system: acetylcholine activity on the bronchi; test: Inhibition of the effect of acetylcholine on the bronchi in guinea pigs; format: in vivo; details: Cavia porcellus, 5 min; anaesthetised guinea pig; 5 minutes after test substance; 10 microgram/kg acetylcholine; expiration resistance; read-out: -log ED50, Bronchi (converted)
Experimental: as §1

[4] = molecular target: muscarinic receptors (cerebral cortex); test: Muscarinic receptor binding, cerebral cortex (displacement of 3H-N-methylscopolamine); parameters: species or system male Sprague-Dawley rats; details: cerebral cortex homogenate; 0.3 nanomolar 3H-NMS; 30 C; 45 minutes; pH 7.4; read-out: Receptor Binding Tests IC50, Cortex
Experimental: (§2) A. Studies of binding to muscarinic receptors:
(§3) In vitro measurement of the IC50 value
(§4) The organs were donated by male Sprague-Dawley rats weighing 180-220 g. After the heart and submandibular gland and cerebral cortex had been removed, all other steps were carried out in ice cold Hepes HCl buffer (pH 7.4; 100 millimolar NaCl, 10 millimolar MgClz). The whole heart was cut up with scissors. All the organs were then homogenised in a Potter apparatus.
(§5) For the binding test the homogenised organs were diluted as follows:
The homogenised organs were incubated at a certain concentration of the radioligand and at a series of concentrations of the non-radioactive test substances in an Eppendorf centrifuge tube at 30 C. Incubation lasted 45 minutes. The radioligand used was 0.3 nanomolar 3H-N-methylscopolamine (^3 H-NMS). Incubation was ended by the addition of ice cold buffer followed by vacuum filtration. The filters were rinsed with cold buffer and their radioactivity was determined. It represents the sum of specific and non-specific binding of ^3 H-NMS. The proportion of non-specific binding was defined as the radioactivity which was bound in the presence of 1 micromolar quinuclidinylbenzylate. Each measurement was taken four times. The IC50 values of the non-labelled test substances were determined graphically. […]

[5] = molecular target: T1, muscarinic receptors (heart) (Rattus norvegicus, UniProt P10980); test: biochemical; parameters: species or system male Sprague-Dawley rats; details: whole heart homogenate; 0.3 nanomolar 3H-NMS; 30 C; 45 minutes; pH 7.4; read-out: Receptor Binding Tests IC50, Heart
T1 sequence (P10980 1-466): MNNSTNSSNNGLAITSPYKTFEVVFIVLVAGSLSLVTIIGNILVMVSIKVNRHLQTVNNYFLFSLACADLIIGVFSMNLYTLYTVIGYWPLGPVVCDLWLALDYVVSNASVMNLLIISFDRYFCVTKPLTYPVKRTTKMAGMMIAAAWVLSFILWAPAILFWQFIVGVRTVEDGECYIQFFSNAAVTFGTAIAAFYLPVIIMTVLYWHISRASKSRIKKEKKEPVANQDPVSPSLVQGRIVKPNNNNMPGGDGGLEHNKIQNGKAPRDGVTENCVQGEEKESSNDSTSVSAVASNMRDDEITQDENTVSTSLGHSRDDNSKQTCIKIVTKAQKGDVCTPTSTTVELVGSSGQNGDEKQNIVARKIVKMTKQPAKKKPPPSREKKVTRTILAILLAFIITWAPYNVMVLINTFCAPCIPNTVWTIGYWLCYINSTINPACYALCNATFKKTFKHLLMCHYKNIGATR

[6] = molecular target: muscarinic receptors (submandibular gland) (Rattus norvegicus, UniProt P08483); test: biochemical; parameters: species or system male Sprague-Dawley rats; details: submandibular gland homogenate; 0.3 nanomolar 3H-NMS; 30 C; 45 minutes; pH 7.4; read-out: Receptor Binding Tests IC50, Submandibular gland
Experimental: as §2, §3, §4, §5
Submandibular gland 1:400
The homogenised organs were incubated at a certain concentration of the radioligand and at a series of concentrations of the non-radioactive test substances in an Eppendorf centrifuge tube at 30 C. Incubation lasted 45 minutes. The radioligand used was 0.3 nanomolar 3H-N-methylscopolamine (^3 H-NMS). Incubation was ended by the addition of ice cold buffer followed by vacuum filtration. The filters were rinsed with cold buffer and their radioactivity was determined. It represents the sum of specific and non-specific binding of ^3 H-NMS. The proportion of non-specific binding was defined as the radioactivity which was bound in the presence of 1 micromolar quinuclidinylbenzylate. Each measurement was taken four times. The IC50 values of the non-labelled test substances were determined graphically. They represent that concentration of test substance at which the specific binding of 3H-NMS to the muscarinic receptors in the various organs was inhibited by 50%.

[7] = molecular target: T2, M1 (Rattus norvegicus, UniProt P08482); test: M1/M2 selectivity in the rat: inhibition of McN-A-343-induced rise in blood pressure (M1); format: in vivo, male THOM rats; details: iv, 5 min
T2 construct: from tissue; host or cells: living rat (male THOM rats, in vivo); sympathetic ganglia by own knowledge
T2 sequence (P08482 1-460): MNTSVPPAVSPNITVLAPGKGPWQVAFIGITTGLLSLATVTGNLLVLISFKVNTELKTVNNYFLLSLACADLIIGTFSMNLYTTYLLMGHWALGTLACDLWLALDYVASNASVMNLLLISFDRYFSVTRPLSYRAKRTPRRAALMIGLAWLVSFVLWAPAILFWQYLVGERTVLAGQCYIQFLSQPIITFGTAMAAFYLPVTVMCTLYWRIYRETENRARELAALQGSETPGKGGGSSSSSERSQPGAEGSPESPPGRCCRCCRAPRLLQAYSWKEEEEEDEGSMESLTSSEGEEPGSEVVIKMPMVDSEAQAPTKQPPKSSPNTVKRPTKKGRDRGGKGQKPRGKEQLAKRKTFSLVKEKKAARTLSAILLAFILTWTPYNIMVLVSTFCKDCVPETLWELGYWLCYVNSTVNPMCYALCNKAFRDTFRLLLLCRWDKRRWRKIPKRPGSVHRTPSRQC
Excerpt: (§6) B. Investigation of functional selectivity of the antimuscarinic effect
(§7) Substances with antimuscarinic properties inhibit the effects of agonists supplied exogenically or of acetylcholine, which is released from cholinergic nerve endings. The following is a description of some methods that are suitable for the detection of cardioselective antimuscarinic agents.
(§8) The objective of the methods was to confirm the selectivity of the antimuscarinic effect. Those substances which had been selected on the basis of "in vitro" tests were tested for their
(§9) 1. M1 /M2 selectivity in the rat,
(§10) 3. Inhibition of the acetylcholine effect on the bladder, bronchi and heart rate in the guinea pig. 1. M1 /M2 SELECTIVITY IN THE RAT
The dosage of the substances which reduced either the vagal bradycardia (M2) or the rise in blood pressure (M1) by 50% was determined graphically. For the results see Table II.

[8] = test system: secretion of saliva; test: Salivation-inhibiting effect in the rat (pilocarpine-induced saliva secretion); format: in vivo, male THOM rats; details: iv; urethane-anaesthetised rat; i.v.; pilocarpine 2 mg/kg s.c.; read-out: -log ED50, Salivation (converted)
Experimental: as §8
2. Salivation-inhibiting effect on the rat and
2. SALIVATION-INHIBITING EFFECT IN THE RAT
The secretion of saliva was initiated by subcutaneous administration of 2 mg/kg of pilocarpine. The saliva was absorbed with blotting paper and the surface area covered was measured every 5 minutes by planimetry. The dosage of the substance which reduced the volume of saliva by 50% was determined graphically. For the results see Table II.

[9] = molecular target: T3, M2 (Rattus norvegicus, UniProt P10980); test: M1/M2 selectivity in the rat: inhibition of vagal bradycardia (M2); format: in vivo, male THOM rats; details: iv, 5 min
T3 construct: The bradycardia caused by vagus stimulation; from tissue; host or cells: heart of the living rat (male THOM rats, in vivo)
T3 sequence (P10980 1-466): T1 sequence (P10980 1-466)
Excerpt: as §6, §7, §8, §9, §10
The method used was described by Hammer and Giachetti (Life Sciences 31, 2991-2998 (1982)). 5 minutes after the intravenous injection of increasing doses of the substance, either the right vagus was electrically stimulated (frequency: 25 Hz; pulse width: 2ms; duration of stimulus: 30s; voltage: supramaximal) or 0.3 mg/kg of McN-A-343 were intravenously injected into male THOM rats. The bradycardia caused by vagus stimulation and the rise in blood pressure caused by McN-A-343 were determined. The dosage of the substances which reduced either the vagal bradycardia (M2) or the rise in blood pressure (M1) by 50% was determined graphically. For the results see Table II.

[10] = anaesthetised guinea pig, 5 minutes after test substance, 10 microgram/kg acetylcholine, read-out: -log ED50, Heart (converted)
[11] = anaesthetised guinea pig, 5 minutes after test substance, 10 microgram/kg acetylcholine, contraction of exposed bladder, read-out: -log ED50, Bladder (converted)
[12] = i.v., 5 minutes after injection, 0.3 mg/kg McN-A-343 i.v., read-out: -log ED50, Blood pressure (McN-A-343 pressor response, M1) (converted)
[13] = i.v., 5 minutes after injection, vagus stimulation 25 Hz, read-out: -log ED50, Heart (vagal bradycardia, M2) (converted)

Sequence of muscarinic receptors (submandibular gland) (P08483 whole entry): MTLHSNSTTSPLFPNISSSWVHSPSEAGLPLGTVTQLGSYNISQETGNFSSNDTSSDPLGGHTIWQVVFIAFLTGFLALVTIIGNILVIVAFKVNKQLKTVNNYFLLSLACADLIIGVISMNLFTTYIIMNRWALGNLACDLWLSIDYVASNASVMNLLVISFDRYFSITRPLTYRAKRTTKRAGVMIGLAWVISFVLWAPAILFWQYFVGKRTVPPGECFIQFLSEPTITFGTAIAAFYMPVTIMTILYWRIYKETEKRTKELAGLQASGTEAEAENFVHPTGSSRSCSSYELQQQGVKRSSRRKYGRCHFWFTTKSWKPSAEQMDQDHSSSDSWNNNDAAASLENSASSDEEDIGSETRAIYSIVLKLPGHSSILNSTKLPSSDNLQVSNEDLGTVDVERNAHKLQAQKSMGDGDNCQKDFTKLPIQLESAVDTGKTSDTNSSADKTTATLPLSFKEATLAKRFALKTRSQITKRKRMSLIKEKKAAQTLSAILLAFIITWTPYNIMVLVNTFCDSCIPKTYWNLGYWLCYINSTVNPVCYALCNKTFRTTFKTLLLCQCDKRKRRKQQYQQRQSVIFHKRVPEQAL

Row | SMILES | ED50 [1, 10] [µmol/kg] | ED50 [2, 11] [µmol/kg] | ED50 [3] [µmol/kg] | IC50 [4] [µM] | IC50 [5] [µM] | IC50 [6] [µM] | ED50 [7, 12] [µmol/kg] | ED50 [8] [µmol/kg] | ED50 [9, 13] [µmol/kg] | ED50 ([1]; read-out: -log ED50, Heart) [µmol/kg] | ED50 ([2]; read-out: -log ED50, Bladder) [µmol/kg] | ED50 ([7]; read-out: -log ED50, Blood pressure (McN-A-343 pressor response, M1)) [µmol/kg] | ED50 ([9]; read-out: -log ED50, Heart (vagal bradycardia, M2)) [µmol/kg]
1 | CCN(CCC1CCCN1C)CC(=O)N1c2cc(Cl)ccc2C(=O)Nc2cccnc21 (stereo not drawn) [Substance B, 9-chloro-5,11-dihydro-11[[[2-(1-methyl-2-pyrrolidinyl)ethyl]ethylamino]acetyl]-6H-pyrido-[2,3-b][1,4]benzodiazepin-6-one] | 0.1 | 0.832 | 0.191 | 0.07 | 0.01 | 0.1 | – | – | – | – | – | – | –
2 | CN(CCC1CCCN1C)CC(=O)N1c2ccccc2NC(=O)c2ccccc21 (stereo not drawn) [Substance C, 5,10-dihydro-5-[[[2-(1-methyl-2-pyrrolidinyl)-ethyl]methylamino]acetyl]-11H-dibenzo[b,e][1,4]-diazepin-11-one hydrochloride] | 0.0288 | 0.234 | 0.0295 | 0.008 | 0.003 | 0.02 | – | – | – | – | – | – | –
3 | CN(CCC1CCCN1C)CC(=O)N1c2ccccc2C(=O)Nc2cccnc21 (stereo not drawn) [Substance A, hydrochloride] | 0.02 | 0.141 | 0.0251 | – | 0.009 | 0.08 | 0.0871 | 0.158 | 0.0123 | – | – | – | –
4 | CN1C2CCC1CC(OC(=O)C(CO)c1ccccc1)C2 (stereo not drawn) [Substance F, atropine, reference compound] | – | – | – | – | – | – | – | – | – | 0.02 | 0.0933 | 0.0457 | 0.0115
5 | CCN(CC)CC1CCCCN1CC(=O)N1c2ccccc2C(=O)Nc2cccnc21 (stereo not drawn) [Substance D, 11-[[2-[(diethylamino)methyl]-1-piperidinyl]acetyl]-5,11-dihydro-6H-pyrido[2,3-b][1,4]benzodiazepin-6-one] | – | – | – | – | – | – | 2.34 | 10 | 0.38 | – | – | – | –
